Data taken from patent publication US9440966B2, “Compounds for treatment of metabolic syndrome” (SJT MOLECULAR RESEARCH, S.L., priority 2011, dated 2016).
Entries after “also recorded” stand apart in the source; their conditions may differ.

Legend:
normoglycemic rats [1] = assay: Oral glucose tolerance test in normoglycemic rats (Examples 27, 28); assay type: in vivo, Male Wistar rats
Procedure: (§1) Male Wistar rats were utilized provided by Mato Grosso do Sul's Federal University's Biotherium. Until the experiments were carried out, the animals have had free access to feed and water. The room temperature was kept at 22±2° C. and the light/dark cycle was of 12 hours.
The glucose tolerance test is a reference method for the diagnosis of diabetes or glucose intolerance (5).
Distinct rat groups were orally treated, once a day, with 3-(carbohydrazyl-N′-phenylsubstituted)-1-benzosubstituted-β-carbolinic-3-carbohydrazide (compound 7a or ANIS-BZ) at doses: 0.5, 1 or 5 mg/kg or vehicle (control) for 3 days. Similarly, another rat group received metformin (reference drug used for lowering glucose serum levels) in a 300 mg/kg dose, orally, once a day for 3 days. The oral glucose tolerance test was carried out by administering of a glucose solution (2 g/kg body mass). Glycemia was determined at zero time (before oral administering) and at 60 minutes after the glucose overload.
Distinct groups of rats were treated orally, once a day, with N(-ethylamine)-1-benzosubstituted-β-carboline-3-carboxamide (compound 4a or ANIS-NH2) at doses: 0.5, 1 or 5 mg/kg, or vehicle for 3 days. Similarly, another group of rats received metformin in a 300 mg/kg dose orally for 3 days once a day. The oral glucose tolerance test was done under the administration of a glucose solution (2 g/kg body mass). Glycemia will be determined at the zero (before oral administration) time and 60 minutes after glucose overload.

normoglycemic rats [2] = assay: Oral glucose tolerance test in normoglycemic rats (Examples 36, 37); assay type: in vivo, Male Wistar rats; details: metformin 300 mg/kg orally daily
Procedure: as §1, with “rats (200-300 g)” for “rats”, “C. with controlled humidity (60-80%)” for “C.”
The glucose tolerance test was evaluated as described by Al-Awaki et al (6).
Rats were randomly divided into […] groups of four animals that were control group that received only a solution of saline, compound 23b group (10 mg/kg), compound 21a group (10 mg/kg) and metformin 300 mg/kg group. Respective treatments were made orally and daily for five days.
(§2) On day 1, 3, and 5, different groups of rats were fasted overnight (at least 12 h) prior to the test, but with given water ad libitum. The oral glucose tolerance test was carried out by administering of a glucose solution (2 g/kg body weight) according to Al-Awadi et al (6). Glycemia was determined in blood samples collected from the tail vein at −30 minutes (just before the administration of the oral extract) time 0 (prior to the glucose overload) and at 60 minutes after the glucose overload. Serum glucose concentrations were measured by the glucose oxidase method (7) using commercial kit (Accuchek-performa (Roche)) according to the manufacture's instructions.
as §1, with “rats (200-300 g)” for “rats”, “C. with controlled humidity (60-80%)” for “C.”, “hours. All procedures were submitted to the Animal Experimentation Ethics Committee.” for “hours.”
The compounds 21b, 23a and 23d were diluted firstly in 20 μl of ethanol and after in 980 μl de saline. Compounds 21e, 23e and 26b were dissolved in sterile saline and were administered by oral gavage to rats based in the weight, for example 200 g received 200 μL.
54 rats were randomly divided into […] groups of five-eight animals that were control group (n=8) that received only a solution of vehicle, compound 21b group (n=5) (10 mg/kg), compound 21e group (n=5) (10 mg/kg), compound 23e group (n=5) (10 mg/kg), compound 23a group (n=5) (10 mg/kg), compound 23d group (n=5) (10 mg/kg), compound 26b group (n=5) (10 mg/kg) and metformin (n=6) 300 mg/kg group. Respective treatments were made orally and daily for five days.
as §2, with “manufactures's” for “manufacture's”

SHR hypertensive rats [3] = assay: Systolic blood pressure test in SHR hypertensive rats; assay type: in vivo, Male Spontaneously Hypertensive Rats (SHR); details: metformin 300 mg/kg oral
Procedure: (§3) Male Spontaneously Hypertensive Rats (SHR) were provided by Charles River Laboratories (USA). Until the experiments were carried out, the animals have had free access to feed and water. The room temperature was kept at 22±2° C. and the light/dark cycle was of 12 hours. All procedures were submitted to the Animal Experimentation Ethics Committee.
Distinct rat groups were orally treated, once a day, with 5 mg/kg of compounds 4a or 5a or 6a during the first 4 days, 10 mg/kg during the next 4 days and 15 mg/kg until the end of the treatment period or vehicle (control) for the same days. Similarly, another rat group received metformin (MET) (reference drug used for lowering glucose serum levels) in a 300 mg/kg dose, orally, from day 1 to the end of the treatment. Plasma cholesterol levels were measured in triplicate 12 hours after drug administration by the cholesterol oxidase/peroxidase method (BioSystems S.A, Barcelona, Spain). […]
Distinct rat groups were orally treated, once a day, with 5 mg/kg of compounds 4a or 5a or 6a during the first 4 days, 10 mg/kg during the next 4 days and 15 mg/kg until the end of the treatment period or vehicle (control) for the same days. […] Blood pressure was measured in triplicate 4 hours after drug administration in warmed warmed, restrained, conscious rats by the tail-cuff method with a computerized oscillometric system recorder (Nyprem, Cibertec). […]

SHR hypertensive rats [4] = assay: Plasma cholesterol levels test in SHR hypertensive rats; assay type: in vivo, Male SHR
Procedure: (§4) Distinct rat groups were orally treated, once a day, with 5 mg/kg of compounds 4a or 5a or 6a during the first 4 days, 10 mg/kg during the next 4 days and 15 mg/kg until the end of the treatment period or vehicle (control) for the same days. Similarly, another rat group received metformin (MET) (reference drug used for lowering glucose serum levels) in a 300 mg/kg dose, orally, from day 1 to the end of the treatment. Plasma cholesterol levels were measured in triplicate 12 hours after drug administration by the cholesterol oxidase/peroxidase method (BioSystems S.A, Barcelona, Spain). Blood samples were obtained by femoral vein punction. This method was chosen because of its noninvasive character, enabling daily measurements with the same rats throughout the entire treatment.
as §3, with “SHR” for “Spontaneously Hypertensive Rats (SHR)”
as §4, with “metformin” for “metformin (MET)”, “Blood pressure was” for “Plasma cholesterol levels were”, “4” for “12”, “administration in warmed warmed, restrained, conscious rats” for “administration”, “tail-cuff” for “cholesterol oxidase/peroxidase”, “with a computerized oscillometric system recorder (Nyprem, Cibertec).” for “(BioSystems S.A, Barcelona, Spain). Blood samples were obtained by femoral vein punction.”

SHR hypertensive rats [5] = assay: Blood glucose levels test in SHR hypertensive rats; assay type: in vivo, Male SHR
Procedure: as §3, with “SHR” for “Spontaneously Hypertensive Rats (SHR)”, “water. The food was removed 12 h before glucose determination.” for “water.”
Distinct rat groups were orally treated, once a day, with 5 mg/kg of compound 4a during the first 4 days, 10 mg/kg during the next 4 days and 15 mg/kg until the end of the treatment period or vehicle (control) for the same days. Similarly, another rat group received metformin in a 300 mg/kg dose, orally, from day 1 to the end of the treatment. Blood glucose levels were measured in triplicate 12 hours after drug administration with the aid of a GLUCOCARD TM G meter, GT-1810. Results were compared with the effect of metformin […]. Blood samples were obtained by femoral vein punction. This method was chosen because of its noninvasive character, enabling daily measurements with the same rats throughout the entire treatment.

SHR hypertensive rats [6] = assay: Plasma triglyceride levels test in SHR hypertensive rats; assay type: in vivo, Male SHR; details: 25 days of treatment (5-15 mg/Kg) oral
Procedure: as §3, with “SHR” for “Spontaneously Hypertensive Rats (SHR)”
as §4, with “of compound” for “of compounds”, “4a” for “4a or 5a or 6a”, “metformin” for “metformin (MET)”, “Plasma triglyceride” for “Plasma cholesterol”, “the glycerol phosphate” for “the cholesterol”

[7] = tested on: Drosophila melanogaster (Oregon-R strain); assay: Toxicology study: larva-to-adult viability and development time; details: in vivo
From the text: The purpose of this study was to test and compare the potential toxic effects of compounds 5a, 6a and 7a on the larva-to-adult viability and development time in a Drosophila melanogaster (Oregon-R) flies. These studies have a relevant predictive role with the aim to anticipate possible adverse toxicological effects that may happen during preclinical studies with animal, preferably mammals. In addition, the data provided are highly quantitative.
Drosophila melanogaster (Oregon-R) flies were obtained by the University of the Balearic Islands (Spain). […] The larvae were seeded on standard food supplemented with the appropriate dose of compounds tested. Each compound was tested at 1, 10, 100, 1000 and 2000 μg/ml dissolved in standard food.
Fly adults were transferred from the serial transfer system to bottles with fresh food for 24 h. Adults 5 days old were placed on egg collecting devices (layers) containing a mixture of agar, water, acetic acid, and ethyl alcohol, with a drop of active yeast on it. Every 2 h., the layer glasses were changed, in this way, the eggs of a glass have similar age, with a maximum difference of 2 h. among them. The glasses of the layers were kept at 25° C. for at least 22 h. in Petri dishes until larvae hatched. Fifty larvae were picked with a lancet under a stereoscopic microscope and were seeded into 10×2 cm vials with 5 ml food. Vials were supplemented with 4a, 5a and 7a at 1, 10 and 100 μg/ml. As positive control we used cupric acetate (toxic) at 350 μg/ml.
The number of adult flies which emerged from each vial was counted daily until the exhaustion of the culture. The parameters studied were the larvae-to-adult viability (V) and development time.
Viability is expressed as V=NA/NL, where NL is the input number of larvae ([…] in our case) and NA the output number of adults emerging from these NL larvae. Development time was measured in days by the formula DT=ΣNidi/ΣNi where Ni is the number of flies emerging on the day di after the larvae were placed in the medium.
The data are expressed as the mean±SEM values from 3 independent experiments involving triplicate vials at the number of flies indicated.

female Swiss mice = assay: Acute oral toxicology study in a mice model; assay type: in vivo; details: oral 2000 mg/kg single dose, observation for 14 days
Procedure: The experiments were conducted using female Swiss mice (20-30 g), housed under a 12-h light-dark cycle, with controlled humidity (60-80%), and temperature (22±1° C.). Food and water were freely available to the mice.
Female mice (n=6) were orally (2000 mg/kg) administered with a single dose of 4a, 5a, and 7a for the observation of acute signs of toxicity until 14 days. […] The observations comprised the behavior and manifestations of the toxic symptoms, and were carried out according to the Guidelines of the Organization for Economic Cooperation and Development (OECD, 2008).
All compounds were dissolved in sterile saline and were administered by oral gavage to mice based in the weight, for example 20 g received 20 μL.
The data are expressed as mean±S.E.M. of experiments. Statistical significance was determined through one-way analysis of variances (ANOVA), followed by either Newman-Keuls test. A p<0.05 was considered statistically significant. Graphs were drawn and statistical analysis was carried out using GraphPad Prism version 5.00 for Windows (GraphPad Software, San Diego, Calif., USA).

Compound	glycemic levels of animals that received an oral glucose overload (normoglycemic rats [1]; after 3 days, metformin 300 mg/kg oral once a day)	glycemic levels of animals that received an oral glucose overload (normoglycemic rats [1]; first day, metformin 300 mg/kg oral)	glucose levels in oral glucose tolerance test (normoglycemic rats [2]; fifth day)	glucose levels in oral glucose tolerance test (normoglycemic rats [2]; first day)	glucose levels in oral glucose tolerance test (normoglycemic rats [2]; third day)	inhibitory effect on systolic blood pressure (SHR hypertensive rats [3])	plasma cholesterol levels (SHR hypertensive rats [4]; 25 days, Metformin 300 mg/Kg oral)	effect on blood glucose levels (SHR hypertensive rats [5]; Metformin 300 mg/kg for 23 days)	glycemic levels of animals that received an oral glucose overload (normoglycemic rats [1]; after 3 days, 0.5 mg/kg oral once a day, vs control group)	glycemic levels of animals that received an oral glucose overload (normoglycemic rats [1]; after 3 days, 1 mg/kg oral once a day, vs control group)	glycemic levels of animals that received an oral glucose overload (normoglycemic rats [1]; after 3 days, 5 mg/kg oral once a day, vs control group, 5 mg/kg)	glycemic levels of animals that received an oral glucose overload (normoglycemic rats [1]; first day, 5 mg/kg oral, vs control group, 60 min after glucose 2 g/kg)	plasma cholesterol levels (SHR hypertensive rats [4]; 25 days of treatment (15 mg/Kg) oral, effect more pronounced for 5a and 7a)	plasma triglyceride levels (SHR hypertensive rats [6])	blood glucose decrease compared to the vehicle-control group (SHR hypertensive rats [5]; doses from 5 to 15 mg/kg oral, treatment periods of 4-15 days)	larvae-to-adult viability and development time [7]	mortality or behavioral disorders (acute signs of toxicity) (female Swiss mice)
CN(C)C(=N)N=C(N)N [metformin, reference compound]	induces reduction of glycemic levels	induces reduction of glycemic levels	reduced the glucose levels	significant reduction in glucose levels	induces reduction of glycemic levels; also recorded: significant reduction in glucose levels	This effect at 5-15 mg/kg is greater than that of metformin	inhibition of plasma cholesterol levels	slightly greater effect on blood glucose levels	–	–	–	–	–	–	–	–	–
COc1ccc(-c2nc(C(=O)NCCN)cc3c2[nH]c2ccccc23)cc1 [Compound 4a, N(-ethylamine)-1-benzosubstituted-β-carboline-3-carboxamide]	–	–	–	–	–	–	–	–	only the 1 and 5 mg/kg doses reduced statistically significant the glycemic levels	reduced statistically significant the glycemic levels	reduces the glycemic levels; also recorded: reduced statistically significant the glycemic levels	reduces the glycemic levels	inhibition of plasma cholesterol levels	statistically significant (p<0.05), inhibition of plasma triglyceride levels	5-7%	not affected	did not produce mortality or any behavioral disorders
